{"source": "patent US6207399A", "about": "“Methods of determining endogenous thrombin potential (ETP) and thrombin substrates for use in said methods” (Hemker; Hendrik Coenraad, priority 1995, dated 2001)", "key": {"thrombin": {"tested_on": "thrombin", "conditions": "Svendsen et al; cited from earlier work"}, "human α-thrombin": {"target": "T1, human α-thrombin (Homo sapiens, UniProt P00734)", "T1 construct": "Pure human α-thrombin; gift of Dr. T. Lindhout (University of Limburg, Maastricht)", "experiment": "Kinetics of hydrolysis of substrates by human α-thrombin in buffer A at 37° C. (Example 2, Table 1)", "type": "biochemical", "in_short": "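p-Nitroaniline release was followed at 405 nm (dual wavelength 405-546 nm) in buffer A at 37° C, with substrate at 1 to 2000 μM (at least six levels) preincubated 5 min before enzyme at 0.5 to 100 nM. Km and kcat came from initial velocities fitted to Michaelis-Menten by linear regression, from one or two experiments.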"}, "factor Xa": {"target": "T2, factor Xa (Homo sapiens, UniProt P00742)", "T2 construct": "human factor Xa samples; gift of Dr. T. Lindhout (University of Limburg, Maastricht)", "T2 sequence (P00742 41-179 limits assumed)": "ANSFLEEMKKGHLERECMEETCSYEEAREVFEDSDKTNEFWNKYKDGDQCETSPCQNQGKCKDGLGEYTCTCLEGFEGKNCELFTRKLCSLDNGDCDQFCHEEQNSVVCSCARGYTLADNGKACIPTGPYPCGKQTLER", "T2 sequence (P00742 235-488 limits assumed)": "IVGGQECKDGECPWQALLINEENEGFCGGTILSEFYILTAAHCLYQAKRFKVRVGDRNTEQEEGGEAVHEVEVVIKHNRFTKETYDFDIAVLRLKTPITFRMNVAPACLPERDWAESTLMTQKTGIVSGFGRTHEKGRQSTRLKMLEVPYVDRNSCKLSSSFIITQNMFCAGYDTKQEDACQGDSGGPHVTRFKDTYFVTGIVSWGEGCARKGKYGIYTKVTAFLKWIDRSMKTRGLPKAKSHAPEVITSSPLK", "experiment": "Kinetics of hydrolysis of substrates by human factor Xa in buffer A at 37° C. (Example 2, Table 2)", "type": "biochemical", "design": "key to kcat: NH: not hydrolyzed by factor Xa", "description": "Kinetic parameters: The hydrolysis experiments were run in buffer A at 37° C. The liberation of p-nitroaniline was monitored at 405 nm in a dual wavelength (405-546 nm) spectrophotometer made in our workshop, using a personal computer for data recording. In a polystyrene microcuvette (total volume 500 μL), buffer A and substrate solution were added to obtain a final substrate concentration between 1 to 2000 μM. After 5 min of incubation at 37° C., enzyme solution was added to achieve a final concentration between 0.5 to 100 nM. The measurement was carried out at 37° C. in a thermostated cuvette-holder. The Michaelis constant (Km) and the catalytic constant (kcat) were obtained by measuring initial reaction velocities at different substrate concentrations. The data obtained were fitted by linear regression on the Michaelis-Menten equation.\nKinetic parameters: In a preliminary experiment, the substrate was hydrolyzed under the following conditions: enzyme concentration: 10 to 20 nM, substrate concentration: 200 μM in buffer A to get an impression of the initial velocity. […] The results are given in table 1 and 2 for thrombin and factor Xa respectively. The Km and kcat for each substrate were determined from the initial velocities measured for at least six substrate concentrations in the concentration range as given. The enzyme concentration used gives a good signal to noise ratio. The data given are obtained from one or two experiments. The data from table 1 and 2 were only used as the first selection criterion to get a rough impression of the hydrolysis behaviour. Notwithstanding the preliminary character of the measurement it was helpful in the design of the substrates of our interest."}}, "note": "Peptide text beside a SMILES is read from it. * marks the point of attachment. pNA = O=[N+]([O-])c1ccc(N*)cc1"}
{"compound": "CC(C)[C@H](N)C(=O)N[C@@H](CCCNC(=N)N)C(=O)Nc1ccc([N+](=O)[O-])cc1.Cl.Cl", "note": "[2HCl.H-Val-Arg-pNA] (H-Val-Arg-pNA)", "values": [{"measurement": "factor by which poorer substrate for thrombin than Benzoyl-Phe-Val-Arg-p-nitroanilide", "setting": "thrombin", "value": "≥ 100"}, {"measurement": "Km", "setting": "human α-thrombin", "value": 1240, "unit": "µM"}, {"measurement": "kcat", "setting": "human α-thrombin", "value": 0.23, "unit": "s⁻¹"}, {"measurement": "kcat /Km", "setting": "human α-thrombin", "value": 186, "unit": "M/s"}, {"measurement": "kcat", "setting": "factor Xa", "value": "NH"}]}
